Measurements as given in patent US5116863A, “Dibenz[b,e]oxepin derivative and pharmaceutical compositions thereof” (Kyowa Hakko Kogyo Co., Ltd., priority 1986, dated 1992).
Where two headings read alike, the source gives them in different places.

How the values were obtained:
[1] = tested on: homologous PCA (passive cutaneous anaphlaxis) of rats; test: Homologous PCA (passive cutaneous anaphylaxis) test of rats for 48 hours, oral (antiallergic activity); type: in vivo, Wistar male rats; conditions: for minimal effective dose: read-out: MED (minimum effective dosage), PCA inhibition; for responders at 1 mg/kg / responders at 10 mg/kg / responders at 100 mg/kg / responders at 0.1 mg/kg / responders at 0.01 mg/kg: read-out: Number of positive zooids in one group of 3 zooids (converted); for responders at 10 mg/kg: dosage 10 mg/kg; for responders at 100 mg/kg: dosage 100 mg/kg; for responders at 0.01 mg/kg: dosage 0.01 mg/kg
Procedure: Antiallergic activity was investigated by a homologous PCA (passive cutaneous anaphlaxis) of rats for 48 hours, where Wistar male rats having body weights of 180 to 220 g were used for sampling of antiserum and Wistar male rats having body weights of 120 to 140 g were used for the PCA test.
Anti-egg white albumin (EWA) rat serum was prepared according to Stotland and Share's method [Canad. J. Physiol. Pharmacol. 52, 1114 (1974)]. That is, 1 mg of EWA was mixed with 20 mg of aluminum hydroxide gel and 0.5 ml of mixed vaccine of pertussis, diphtheria and tetanus, and the mixture was subcutaneously administered in four portions into rat's footpad. After 14 days, blood was sampled from the carotid artery, and the serum was separated from the sampled blood, and preserved under freezing at -80° C. The potency of the antiserumin in the homologous PCA for 48 hours was 1:32.
Groups each consisting of 3 rats were used, and 0.05 ml of anti-EWA rat serum diluted with a physiological saline solution to 8 times as much was incutaneously injected each at two positions of depilated back to make the animals passively sensitised. After 47 hours, the compound of the present invention, or its solution (physiological saline solution or CMC solution) was orally administered. One hour thereafter, 0.5 ml/100 g of 1% Evan's blue physiological saline solution containing 2 mg of the antigen EWA was administered into the tail vein, and 30 minutes thereafter, the animals were sacrificed by exsanguination. Then, the skins were stripped and the amount of leaked pigment at the blue-dyed parts was measured according to the Katayama et al method [Microbiol. Immunol. 22, 89 (1978)]. That is, the blue-dyed parts were cut out by scissors, and placed in test tubes containing 1 ml of 1N KOH and incubated at 37° C. for 24 hours. Then, 9 ml of a mixture of 0.6N phosphoric acid and acetone (5:13) was added thereto, and the mixture was shaked and centrifuged at 2,500 rpm for 10 minutes. Absorbancy of the supernatant at […] was measured, and the amount of leaked pigment was quantitatively determined by the calibration curve prepared in advance. An average of measurements at the two position was made a value for one zooid, and inhibition rate for the individual zooid was calculated by the following formula: [formula]

dd, male mice = type: in vivo
Procedure: Groups each consisting of 3 dd, male mice having body weights of 20±1 g were used, and the compound of the present invention was administered orally (po: 300 mg/kg) or intraperitoneally (ip: 100 mg/kg).

Rat carageenin paw edema = test: Carageenin paw edema test (antiinflammatory activity); type: in vivo, Wistar male rats; conditions: average value in one group of 3 rats, 100 mg/kg oral administration
Procedure: Antiinflammatory activity was examined according to Rat carageenin paw edema [J. Pathol. 104, 15-29 (1971)], Groups each consisting of three Wistar male rats weighing 150 g were used. The test compound was suspended in 0.3% aqueous CMC solution and the suspension was given orally. Sixty minutes later, 0.1 ml of 0.1% carageenin was subcutaneously injected in a hind paw to form carageenin paw edema.
The volume of paw was measured before the administration and 3 hours after the administration of carageenin with plethysmometer.
The ratio of the volume 3 hours after the administration to that before the administration of carageenin was calculated and each ratio is compared with the ratio of control group (0.3% CMC was administered) to give the edema inhibiting percentage.

[2] = Rattus norvegicus, minimum dosage with positive case in at least one of three rats
[3] = Rattus norvegicus, po, dosage 1 mg/kg, positive = inhibition rate 50% or higher
[4] = Rattus norvegicus, po, positive = inhibition rate 50% or higher
[5] = mice, mortality 7 days after administration
[6] = Rattus norvegicus, po, dosage 0.1 mg/kg, positive = inhibition rate 50% or higher

Row | Compound | minimal effective dose [1, 2] [mg/kg] | responders at 1 mg/kg [1, 3] [%] | responders at 10 mg/kg [1, 4] [%] | responders at 100 mg/kg [1, 4] [%] | Acute toxicity (MLD), ip (dd, male mice; [5]) [mg/kg] | Acute toxicity (MLD), po (dd, male mice; [5]) [mg/kg] | Carageenin paw edema inhibiting percentage (Rat carageenin paw edema) [%] | responders at 0.1 mg/kg [1, 6] [%] | responders at 0.01 mg/kg [1, 4] [%] | responders at 0.001 mg/kg ([1]; Rattus norvegicus, po, dosage 0.001 mg/kg, positive = inhibition rate 50% or higher, read-out: Number of positive zooids in one group of 3 zooids) [%] | Acute toxicity (MLD), ip (dd, male mice; mouse, in vivo, 10080 min) [mg/kg] | Acute toxicity (MLD), po (dd, male mice; mouse, in vivo, 10080 min) [mg/kg] | Number of positive zooids in one group of 3 zooids ([1]; dosage 0.1 mg/kg, positive = inhibition rate 50% or higher, listed as 31') | Number of positive zooids in one group of 3 zooids ([1]; dosage 1 mg/kg, positive = inhibition rate 50% or higher, listed as 31') | Number of positive zooids in one group of 3 zooids ([1]; dosage 0.1 mg/kg, positive = inhibition rate 50% or higher) | Number of positive zooids in one group of 3 zooids ([1]; dosage 1 mg/kg, positive = inhibition rate 50% or higher) | MED (minimum effective dosage), PCA inhibition ([1]; minimum dosage with positive case in at least one of three rats) [mg/kg]
1 | CN(C)CCN=C1c2ccccc2COc2ccc(CC(=O)O)cc21 [Compound 37, 11-(2-Dimethylaminoethyl)imino-6,11-dihydrodibenz[b,e]oxepin-2-acetic acid] | 10 | 0 | 100 | 100 | > 100 | > 300 | 51.6 | – | – | – | – | – | – | – | – | – | –
2 | CCN(CC)CCN=C1c2ccccc2COc2ccc(CC(=O)O)cc21 [Compound 39, 11-(2-Diethylaminoethyl)imino-6,11-dihydrodibenz[b,e]oxepin-2-acetic acid] | 1 | 100 | 66.7 | 100 | > 100 | > 300 | 50.2 | 0 | – | – | – | – | – | – | – | – | –
3 | CN(C)CCCN=C1c2ccccc2COc2cc(CC(=O)O)ccc21 [Compound 49, 11-(3-Dimethylaminopropyl)imino-6,11-dihydrodibenz[b,e]oxepin-3-acetic acid] | – | – | – | – | – | – | 24.1 | – | – | – | – | – | – | – | – | – | –
4 | CC(C(=O)O)c1ccc2c(c1)C(=NCCN(C)C)c1ccccc1CO2 (stereo not drawn) [Compound 45, 2-[11-(2-Dimethylaminoethyl)imino-6,11-dihydrodibenz[b,e]oxepin-2-yl]-propionic acid] | 1 | 66.7 | 100 | 100 | > 100 | > 300 | 63.1 | 0 | – | – | – | – | – | – | – | – | –
5 | CN(C)CCN=C1c2ccccc2COc2cc(CC(=O)O)ccc21 [Compound 47, 11-(2-Dimethylaminoethyl)imino-6,11-dihydrodibenz[b,e]oxepin-3-acetic acid] | – | – | – | – | – | – | 46.0 | – | – | – | – | – | – | – | – | – | –
6 | O=C(O)c1ccc2c(c1)C(=CCCN1CCSCC1)c1ccccc1CO2 [Compound 58, 11-(3-Thiomorpholinopropylidene)-6,11-dihydrodibenz[b,e]oxepin-2-carboxylicacid] | 1 | 100 | 100 | 100 | > 100 | > 300 | – | 0 | – | – | – | – | – | – | – | – | –
7 | CCN(CC)CCN=C1c2ccccc2COc2ccc(C(=O)O)cc21 [Compound 35, 11-(2-Diethylaminoethyl)imino-6,11-dihydrodibenz[b,e]oxepin-2-carboxylic acid] | 10 | 0 | 33.3 | 100 | > 100 | > 300 | – | – | – | – | – | – | – | – | – | – | –
8 | CN(C)CC/C=C1/c2ccccc2COc2ccc(C(=O)O)cc21 [Compound 3 (cis), Cis-11-(3-dimethylaminopropylidene)-6,11-dihydrodibenz[b,e]oxepin-2-carboxylic acid] | 0.1 | 100 | 100 | 100 | > 100 | > 300 | – | 100 | 0 | – | – | – | – | – | – | – | –
9 | CN(C)CC/C=C1\c2ccccc2COc2ccc(CCC(=O)O)cc21 [Compound 28 (trans), Trans-3-[11-(3-dimethylaminopropylidene)-6,11-dihydrodibenz[b,e]oxepin-2-yl]-propionic acid] | 0.01 | 66.7 | 100 | 100 | > 100 | > 300 | – | 66.7 | 33.3 | 0 | – | – | – | – | – | – | –
10 | CN(C)CCCN=C1c2ccccc2COc2ccc(CC(=O)O)cc21 [Compound 41, 11-(3-Dimethylaminopropyl)imino-6,11-dihydrodibenz[b,e]oxepin-2-acetic acid] | 1 | 33.3 | 66.7 | 100 | > 100 | > 300 | 38.7 | 0 | – | – | – | – | – | – | – | – | –
11 | CN1CCN(C/C=C2\c3ccccc3COc3ccc(C(=O)O)cc32)CC1 [Compound 11, 11-[2-(4-Methylpiperazino)ethylidene]-6,11-dihydrodibenz[b,e]oxepin-2-carboxylic acid] | 10 | 0 | 33.3 | 66.7 | – | – | – | 0 | – | – | > 100 | > 300 | – | – | – | – | –
12 | CN(C)CC/C=C1/c2ccccc2COc2ccc(/C=C/C(=O)O)cc21 [Compound 60, Trans-3-[11-(3-dimethylaminopropylidene)-6,11-dihydrodibenz[b,e]oxepin-2-yl]-acrylic acid] | 0.1 | 66.7 | 100 | 100 | > 100 | > 300 | – | 33.3 | 0 | – | – | – | – | – | – | – | –
13 | CN(C)CCCC=C1c2ccccc2COc2ccc(CC(=O)O)cc21 [Compound 22, 11-(4-Dimethylaminobutylidene)-6,11-dihydrodibenz[b,e]oxepin-2-acetic acid] | 0.1 | 66.7 | 100 | 100 | > 100 | > 300 | – | 33.3 | 0 | – | – | – | – | – | – | – | –
14 | CN(C)CC/C=C1\c2ccccc2COc2ccc(CCO)cc21 [Compound 31, 11-(3-Dimethylaminopropylidene)-2-(2-hydroxyethyl)-6,11-dihydrodibenz[b,e]oxepin] | 0.1 | – | 100 | 100 | – | – | – | – | 0 | – | > 100 | > 300 | 1/3 | 3/3 | – | – | –
15 | CN(C)CC/C=C1\c2ccccc2COc2ccc(CCO)cc21 [Compound 31 (trans), Trans-11-(3-dimethylaminopropylidene)-2-(2-hydroxyethyl)-6,11-dihydrodibenz[b,e]oxepin] | – | – | – | – | > 100 | > 300 | – | – | – | – | – | – | – | – | 3/3 | 2/3 | 0.1
